# Test results taken from patent publication US20220257557A1, “PHARMACEUTICAL COMPOSITION FOR PREVENTING OR TREATING NEUROLOGICAL DISEASES” (GLACEUM INC., priority 2019, published 2022).
# Columns and labels:
# RAW264.7 cells [1] = experiment: Transcription of NF-κB protein (p65, p50) into nucleus after LPS (Western blot); assay type: cell-based; conditions: 3 h pretreatment (Table 3 amounts), LPS 1 μg/ml 1 h
# Procedure: RAW264.7 cells or BV2 cells (5×10^5 cells/well) were dispensed in DMEM containing 10% heat-inactivated FBS, 10 IU/mL penicillin G, 100 μg/mL streptomycin and 2 mM L-glutamine and cultured in a 5% CO2 incubator at a temperature of 37° C. […]
# (§1) The pretreated cells of Experimental Example 4-1 were treated with 1 μg/ml of LPS for 1 hour, and then the level of transcription of NF-κB protein into the nucleus of each of p65 and p50 was analyzed through Western blot.
# BV2 cells [2] = experiment: as above; assay type: cell-based; conditions: 3 h pretreatment (Table 3 amounts), LPS 1 μg/ml 1 h
# Procedure: (§2) RAW264.7 cells or BV2 cells (5×10^5 cells/well) were dispensed in DMEM containing 10% heat-inactivated FBS, 10 IU/mL penicillin G, 100 μg/mL streptomycin and 2 mM L-glutamine and cultured in a 5% CO2 incubator at a temperature of 37° C.
# (§3) The compound of Formula III-3, III-4, V-3, III-1, IV-1, V-1, IV-2, V-2 or II-2 was added to the RAW264.7 cells or BV2 cells, and the toxicities of the compounds were determined by MTT assay.
# as §1
# BV2 cells [3] = experiment: IL-1β, IL-6 and TNF-α mRNA expression after LPS (RT-PCR); assay type: cell-based; conditions: 3 h pretreatment (Table 3 amounts), LPS 1 μg/ml 6 h
# Procedure: as §2, §3
# (§4) The pretreated cells of Experimental Example 4-1 were treated with 1 μg/ml of LPS for 6 hours, and then the mRNA expression level of the cytokine IL-1β, IL-6 or TNF-α produced in the inflammatory response was analyzed using RT-PCR.
# RAW264.7 cells [4] = experiment: as above; assay type: cell-based; conditions: 3 h pretreatment (Table 3 amounts), LPS 1 μg/ml 6 h
# Procedure: as §2, §3, §4
# [5] = target: T1, rePON1 (PON1, paraoxonase 1) (Homo sapiens, UniProt P27169); experiment: Prevention of inhibition of PON1 activity by oxidized linolenic acid (TBBL substrate); assay type: biochemical; conditions: for activity at 30 µM: 30 μM compound with rePON1 30 min, then oxidized linolenic acid 2 h, TBBL substrate, normal control 100, negative control 73.64; for extent to which inhibition of rePON1 activity was prevented, compared with glabridin: compound 30 μM vs glabridin 30 μM; for extent to which inhibition of rePON1 activity was prevented, compared with glabridin / inhibition of rePON1 activity by oxidized linolenic acid: result in words; for inhibition of rePON1 activity by oxidized linolenic acid: compound 30 μM
# T1 construct: purchased Thermo Corp. RP-75678
# Procedure: Based on the fact that the activity of PON1 is inhibited when PON1 is treated with oxidized linolenic acid, an experiment was conducted to confirm the prevention of inhibition of PON1 activity. The activity of PON1 was measured using TBBL (5-thiobutyl butyrolactones) as a substrate.
# Specifically, after 9.6 μl of 50 mM Tris-HCl containing 1 mM CaCl2 was added to each of […] Eppendorf tubes, 0.2 μl of each of the compounds of Formulas III-1, IV-1, V-1, IV-2, V-2, II-1, IV-3, V-3, III-2, IV-4, V-4, II-2 and III-3 and glabridine was added to each tube so that the concentration thereof was 30 μM. 0.2 μl of rePON1 (RP-75678, Thermo Corp.) was added to each of the 12 tubes and mixed. Thereafter, each of the mixtures was allowed to react at room temperature for 30 minutes, and 0.5 μl of 1 mM oxidized linolenic acid (OX-LA) dissolved in DMSO was added thereto in order to inhibit rePON1 activity, followed by reaction at room temperature for 2 hours, thus preparing solutions (I).
# 25 μl of 0.5 mM DTNB dissolved in 50 mM Tris-HCl containing 1 mM CaCl2 was dispensed into each well of a 384-well plate, and then 10 μl of each of the solutions (I) was dispensed into each well, and 20 μl of 2 mM TBBL dissolved in 50 mM Tris-HCl containing 1 mM CaCl2 was added to each well, thus preparing samples. The absorbance of each of the samples at 420 nm was measured using a spectrometer (SpectraMax M2) at 37° C. every 2 minutes for 1 hour.
# In addition, a negative control was prepared in the same manner as the above-described method, except that, for the preparation of a solution, 0.2 μl of DMSO was added instead of the compounds of Formulas III-1, IV-1, V-1, IV-2, V-2, II-1, IV-3, V-3, III-2, IV-4, V-4, II-2 and III-3 and glabridin. Furthermore, a normal control was prepared in the same manner as the above-described method, except that, for the preparation of a solution, 0.2 μl of DMSO was added instead of the above-described compounds and glabridin and that oxidized linolenic acid was not added. The absorbance of each of the negative control and the normal control was measured.
# Using SoftMax Pro software, the activity of PON1 was calculated from the absorbance using the following Equation 1, and the results are shown in Table 1 below.
# Activity=(absorbancesample−absorbanceblank)/(absorbancePON1−absorbanceblank)*100 [Equation 1]
# BV2 cells [6] = experiment: NO and PGE2 production after LPS; assay type: cell-based; conditions: 3 h pretreatment (Table 3 amounts), LPS 1 μg/ml 24 h
# Procedure: as §2, §3
# (§5) The pretreated cells of Experimental Example 4-1 were treated with 1 μg/ml of LPS for 24 hours, and then the expression levels of iNOS and COX-2 were observed through Western blot, and the production of NO and PGE2 was measured.
# RAW264.7 cells [7] = experiment: NO and PGE2 production after LPS; assay type: cell-based; conditions: 3 h pretreatment (Table 3 amounts), LPS 1 μg/ml 24 h
# Procedure: as §2, §3, §5
# BV2 cells [8] = experiment: iNOS and COX-2 expression after LPS (Western blot); assay type: cell-based; conditions: 3 h pretreatment (Table 3 amounts), LPS 1 μg/ml 24 h
# Procedure: as §2, §3, §5
# RAW264.7 cells [9] = experiment: iNOS and COX-2 expression after LPS (Western blot); assay type: cell-based; conditions: 3 h pretreatment (Table 3 amounts), LPS 1 μg/ml 24 h
# Procedure: as §2, §3, §5
# T1 sequence (P27169 whole entry): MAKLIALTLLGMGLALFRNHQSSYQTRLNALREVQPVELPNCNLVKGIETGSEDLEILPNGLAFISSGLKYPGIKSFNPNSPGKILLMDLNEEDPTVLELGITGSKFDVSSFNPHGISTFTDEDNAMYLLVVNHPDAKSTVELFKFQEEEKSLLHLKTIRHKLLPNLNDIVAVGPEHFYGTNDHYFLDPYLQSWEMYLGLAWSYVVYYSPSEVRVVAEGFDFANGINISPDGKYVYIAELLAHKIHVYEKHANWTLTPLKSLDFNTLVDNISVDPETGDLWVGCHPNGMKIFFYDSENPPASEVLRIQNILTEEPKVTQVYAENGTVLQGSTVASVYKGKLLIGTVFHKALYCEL
structure (smiles),measurement,setting,value
"CC1(C)C=Cc2c(ccc3c2OC[C@@H](c2ccc(O)cc2O)C3)O1 [Glabridin, glabridin, reference compound]","level of transcription of NF-κB protein into the nucleus, p50",RAW264.7 cells [1],did not decrease
same,"level of transcription of NF-κB protein into the nucleus, p65",RAW264.7 cells [1],did not decrease
same,"level of transcription of NF-κB protein into the nucleus, p50",BV2 cells [2],did not decrease
same,"level of transcription of NF-κB protein into the nucleus, p65",BV2 cells [2],did not decrease
same,mRNA expression level of IL-1β,BV2 cells [3],did not decrease
same,mRNA expression level of IL-6,BV2 cells [3],did not decrease
same,mRNA expression level of TNF-α,BV2 cells [3],did not decrease
same,mRNA expression level of IL-1β,RAW264.7 cells [4],did not decrease
same,mRNA expression level of IL-6,RAW264.7 cells [4],did not decrease
same,mRNA expression level of TNF-α,RAW264.7 cells [4],did not decrease
same,activity at 30 µM,[5],82.8%
same,production of NO,BV2 cells [6],did not decrease
same,production of PGE2,BV2 cells [6],did not decrease
same,production of NO,RAW264.7 cells [7],did not decrease
same,production of PGE2,RAW264.7 cells [7],did not decrease
same,expression level of COX-2,BV2 cells [8],did not decrease
same,expression level of iNOS,BV2 cells [8],did not decrease
same,expression level of COX-2,RAW264.7 cells [9],did not decrease
same,expression level of iNOS,RAW264.7 cells [9],did not decrease
"CCOc1ccc([C@H]2COc3c(ccc4c3CCC(C)(C)O4)C2)c(O)c1 [Formula V-1, (S)-2-(8,8-dimethyl-2,3,4,8,9,10-hexahydropyrano[2,3-f]chromen-3-yl)-5-ethoxyphenol]","level of transcription of NF-κB protein into the nucleus, p50",RAW264.7 cells [1],concentration-dependently decreased
same,"level of transcription of NF-κB protein into the nucleus, p65",RAW264.7 cells [1],concentration-dependently decreased
same,"level of transcription of NF-κB protein into the nucleus, p50",BV2 cells [2],concentration-dependently decreased
same,"level of transcription of NF-κB protein into the nucleus, p65",BV2 cells [2],concentration-dependently decreased
same,mRNA expression level of IL-1β,BV2 cells [3],concentration-dependently decreased
same,mRNA expression level of IL-6,BV2 cells [3],concentration-dependently decreased
same,mRNA expression level of TNF-α,BV2 cells [3],concentration-dependently decreased
same,mRNA expression level of IL-1β,RAW264.7 cells [4],concentration-dependently decreased
same,mRNA expression level of IL-6,RAW264.7 cells [4],concentration-dependently decreased
same,mRNA expression level of TNF-α,RAW264.7 cells [4],concentration-dependently decreased
same,activity at 30 µM,[5],80.7%
same,"extent to which inhibition of rePON1 activity was prevented, compared with glabridin",[5],greater
same,inhibition of rePON1 activity by oxidized linolenic acid,[5],prevented
same,production of NO,BV2 cells [6],concentration-dependently decreased
same,production of PGE2,BV2 cells [6],concentration-dependently decreased
same,production of NO,RAW264.7 cells [7],concentration-dependently decreased
same,production of PGE2,RAW264.7 cells [7],concentration-dependently decreased
same,expression level of COX-2,BV2 cells [8],concentration-dependently decreased
same,expression level of iNOS,BV2 cells [8],concentration-dependently decreased
same,expression level of COX-2,RAW264.7 cells [9],concentration-dependently decreased
same,expression level of iNOS,RAW264.7 cells [9],concentration-dependently decreased
"CCCOc1ccc([C@@H]2COc3c(ccc4c3CCC(C)(C)O4)C2)c(O)c1 [Formula IV-2, (R)-2-(8,8-dimethyl-2,3,4,8,9,10-hexahydropyrano[2,3-f]chromen-3-yl)-5-propoxyphenol]","level of transcription of NF-κB protein into the nucleus, p50",RAW264.7 cells [1],concentration-dependently decreased
same,"level of transcription of NF-κB protein into the nucleus, p65",RAW264.7 cells [1],concentration-dependently decreased
same,"level of transcription of NF-κB protein into the nucleus, p50",BV2 cells [2],concentration-dependently decreased
same,"level of transcription of NF-κB protein into the nucleus, p65",BV2 cells [2],concentration-dependently decreased
same,mRNA expression level of IL-1β,BV2 cells [3],concentration-dependently decreased
same,mRNA expression level of IL-6,BV2 cells [3],concentration-dependently decreased
same,mRNA expression level of TNF-α,BV2 cells [3],concentration-dependently decreased
same,mRNA expression level of IL-1β,RAW264.7 cells [4],concentration-dependently decreased
same,mRNA expression level of IL-6,RAW264.7 cells [4],concentration-dependently decreased
same,mRNA expression level of TNF-α,RAW264.7 cells [4],concentration-dependently decreased
same,activity at 30 µM,[5],93.5%
same,"extent to which inhibition of rePON1 activity was prevented, compared with glabridin",[5],greater
same,inhibition of rePON1 activity by oxidized linolenic acid,[5],prevented
same,production of NO,BV2 cells [6],concentration-dependently decreased
same,production of PGE2,BV2 cells [6],concentration-dependently decreased
same,production of NO,RAW264.7 cells [7],concentration-dependently decreased
same,production of PGE2,RAW264.7 cells [7],concentration-dependently decreased
same,expression level of COX-2,BV2 cells [8],concentration-dependently decreased
same,expression level of iNOS,BV2 cells [8],concentration-dependently decreased
same,expression level of COX-2,RAW264.7 cells [9],concentration-dependently decreased
same,expression level of iNOS,RAW264.7 cells [9],concentration-dependently decreased
"CCc1ccc(C2COc3c(ccc4c3CCC(C)(C)O4)C2)c(O)c1 (stereo not drawn) [Formula III-3, 2-(8,8-dimethyl-2,3,4,8,9,10-hexahydropyrano[2,3-f]chromen-3-yl)-5-ethylphenol]","level of transcription of NF-κB protein into the nucleus, p50",RAW264.7 cells [1],concentration-dependently decreased
same,"level of transcription of NF-κB protein into the nucleus, p65",RAW264.7 cells [1],concentration-dependently decreased
same,"level of transcription of NF-κB protein into the nucleus, p50",BV2 cells [2],concentration-dependently decreased
same,"level of transcription of NF-κB protein into the nucleus, p65",BV2 cells [2],concentration-dependently decreased
same,mRNA expression level of IL-1β,BV2 cells [3],concentration-dependently decreased
same,mRNA expression level of IL-6,BV2 cells [3],concentration-dependently decreased
same,mRNA expression level of TNF-α,BV2 cells [3],concentration-dependently decreased
same,mRNA expression level of IL-1β,RAW264.7 cells [4],concentration-dependently decreased
same,mRNA expression level of IL-6,RAW264.7 cells [4],concentration-dependently decreased
same,mRNA expression level of TNF-α,RAW264.7 cells [4],concentration-dependently decreased
same,"extent to which inhibition of rePON1 activity was prevented, compared with glabridin",[5],greater
same,inhibition of rePON1 activity by oxidized linolenic acid,[5],prevented
same,production of NO,BV2 cells [6],concentration-dependently decreased
same,production of PGE2,BV2 cells [6],concentration-dependently decreased
same,production of NO,RAW264.7 cells [7],concentration-dependently decreased
same,production of PGE2,RAW264.7 cells [7],concentration-dependently decreased
same,expression level of COX-2,BV2 cells [8],concentration-dependently decreased
same,expression level of iNOS,BV2 cells [8],concentration-dependently decreased
same,expression level of COX-2,RAW264.7 cells [9],concentration-dependently decreased
same,expression level of iNOS,RAW264.7 cells [9],concentration-dependently decreased
